Measurements from PubChem BioAssay AID1159564 (GlaxoSmithKline (GSK), 2015).
Active and inactive are the calls of the source. The rule behind the calls is not given here.

Tested on: L. donovani-infected THP-1 macrophages, intracellular amastigote imaging
Experiment: antileishmanial activity in infected THP-1 macrophages – imaging, THP-1 host macrophages, host toxicity (AID 1159564)
[1] = measured here: THP-1 host cell toxicity
[2] = measured here: amastigotes per macrophage

With `O=C(NCCc1csc(-c2ccc(F)cc2)n1)c1ccco1` the IC50 was > 50 µM (inactive), the IC50 [1] was greater than 50 µM and the IC50 [2] was greater than 50 µM.

With `CC(C)Oc1cccc(N2CCC(C(=O)N3CCCN(C(C)C)CC3)CC2)c1` the IC50 was > 50 µM (inactive), the IC50 [1] was greater than 50 µM and the IC50 [2] was greater than 50 µM.

Work on `O=C(c1ccc(Cl)cc1)c1ccc(OC(=O)N2CCOCC2)cc1` yielded an IC50 of 5 µM, an IC50 [1] greater than 50 µM and an IC50 [2] of 2 µM.

With `CCOc1ccc2nc(NC(=O)c3ccc([N+](=O)[O-])s3)sc2c1` the IC50 was 6.3 µM, the IC50 [1] was greater than 50 µM and the IC50 [2] was 5 µM.

In the case of `CC(C)(C)C(=O)Nc1cc(C2CC2)nn1-c1nc2c(c(=O)[nH]1)CCCC2`, the IC50 is reported as 5 µM, the IC50 [1] is reported as 7.9 µM and the IC50 [2] is reported as 2 µM.

With `O=C(COc1nn(-c2ccccc2)c2ncccc12)NCc1ccccc1` the IC50 was 0.32 µM, the IC50 [1] was greater than 50 µM and the IC50 [2] was 0.079 µM.

`CN1CCCN(C(=O)c2ccc(N3CCCC3)cc2Cl)CC1` was tested, and the IC50 was > 50 µM (inactive), the IC50 [1] was greater than 50 µM and the IC50 [2] was greater than 50 µM.

For `Cn1nc(-c2ccc(NC(=O)Cc3ccccc3Cl)cc2)c2c(N)ncnc21`, the IC50 was > 50 µM (inactive), the IC50 [1] was greater than 50 µM and the IC50 [2] was greater than 50 µM.

`Nc1nc(-c2ccccn2)nc(-n2nc(-c3ccccc3)cc2N)n1` gave an IC50 of 0.79 µM, an IC50 [1] of 10 µM and an IC50 [2] of 0.79 µM.

For `CCN(C)Cc1ccc(N2CCC(NS(=O)(=O)c3ccc4c(c3)CCO4)CC2)nc1`, the IC50 was > 50 µM (inactive) and the IC50 [1] was greater than 50 µM.

In the case of `CC(Cn1ccnc1)NC(=O)C1CC1c1cccc(Cl)c1Cl` (stereo not drawn), the IC50 is reported as > 50 µM (inactive), the IC50 [1] is reported as greater than 50 µM and the IC50 [2] is reported as 10 µM.

With `O=C1CN(Cc2ccco2)C2CS(=O)(=O)CC2N1c1ccc(Cl)cc1` (stereo not drawn) the IC50 was > 50 µM (inactive), the IC50 [1] was greater than 50 µM and the IC50 [2] was greater than 50 µM.

With `COc1ccc(C2CC(c3ccc(NS(C)(=O)=O)cc3)=NN2C(=O)c2cccs2)cc1OC` (stereo not drawn) the IC50 was 5 µM, the IC50 [1] was greater than 50 µM and the IC50 [2] was 4 µM.

With `COc1ccc(S(=O)(=O)NCc2ccc(-c3ccc(CN(C)CCO)cc3)cc2)cc1` the IC50 was 16 µM, the IC50 [1] was 20 µM and the IC50 [2] was 20 µM.

`CN1CCC(N(C)c2nccc(N3CCN(C(=O)c4cccc(-c5cccnc5)c4)CC3)n2)CC1` gave an IC50 of 1.3 µM, an IC50 [1] of 7.9 µM and an IC50 [2] of 1.3 µM.

Compound `COc1ccc(OC)c2c(=O)c(Cc3ccccc3)c(C)[nH]c12` has an IC50 of 4 µM, an IC50 [1] greater than 50 µM and an IC50 [2] of 2.5 µM.

`Cc1cc(Nc2ccc(C#N)c(Cl)c2C)n[nH]1` was tested, and the IC50 was > 50 µM (inactive), the IC50 [1] was 20 µM and the IC50 [2] was greater than 50 µM.

For `CC1CN(S(=O)(=O)c2ccc(NC(=O)c3cc(C4CC4)nc4c3cnn4C(C)C)cc2)CC(C)O1` (stereo not drawn), the IC50 was > 50 µM (inactive), the IC50 [1] was 10 µM and the IC50 [2] was greater than 50 µM.

`N#Cc1c(Oc2cccc(Cl)c2)cccc1[N+](=O)[O-]` gave an IC50 of 10 µM, an IC50 [1] greater than 50 µM and an IC50 [2] of 7.9 µM.

Work on `COc1cc(OC)cc(C(NS(=O)(=O)c2ccc(Cl)c(C(F)(F)F)c2)c2nccn2C)c1` (stereo not drawn) yielded an IC50 of 6.3 µM, an IC50 [1] greater than 50 µM and an IC50 [2] of 5 µM.

For `CNC(=O)C1Cc2ccccc2N1C(=O)COc1cccc(OC)c1` (stereo not drawn), the IC50 was > 50 µM (inactive), the IC50 [1] was greater than 50 µM and the IC50 [2] was greater than 50 µM.

In the case of `O=C(Nc1cccc(F)c1)N1CCC(Oc2cccc(-c3cccnc3)c2)CC1`, the IC50 is reported as > 50 µM (inactive), the IC50 [1] is reported as 20 µM and the IC50 [2] is reported as 0.79 µM.

With `O=C(NCCc1ccccn1)C(c1cn[nH]c1)N1CCN(c2ccc(Cl)c(Cl)c2)CC1` (stereo not drawn) the IC50 was > 50 µM (inactive), the IC50 [1] was greater than 50 µM and the IC50 [2] was 20 µM.

`Cc1ccc2c(c1)SC(C(=O)Nc1n[nH]c(-c3ccccn3)n1)C2` (stereo not drawn) showed an IC50 of 4 µM, an IC50 [1] of 25 µM and an IC50 [2] of 2.5 µM.

In the case of `NC(=O)c1cc(F)ccc1Nc1nc(NC2CCC(O)CC2)ncc1Br` (stereo not drawn), the IC50 is reported as 0.79 µM, the IC50 [1] is reported as 0.4 µM and the IC50 [2] is reported as 0.63 µM.

With `Cc1cccc(NS(=O)(=O)c2cnc3sc(C)cn3c2=O)c1` the IC50 was > 50 µM (inactive), the IC50 [1] was greater than 50 µM and the IC50 [2] was 5 µM.

In the case of `CC(Cn1ccnc1)NC(=O)C=Cc1ccc(Cl)cc1` (stereo not drawn), the IC50 is reported as > 50 µM (inactive), the IC50 [1] is reported as greater than 50 µM and the IC50 [2] is reported as greater than 50 µM.

With `CC(C)(C)C(Cn1ccnc1)NC(=O)c1ccc2nc(C3CC3)oc2c1` (stereo not drawn) the IC50 was > 50 µM (inactive), the IC50 [1] was 16 µM and the IC50 [2] was greater than 50 µM.

For `NCC(Cc1ccccc1)NC(=O)c1cnc(-c2c[nH]c3ncccc23)s1` (stereo not drawn), the IC50 was 16 µM, the IC50 [1] was 6.3 µM and the IC50 [2] was 13 µM.

With `Cn1cncc1CN1CCC2(CC1)COC(Cc1ccccc1)C2` (stereo not drawn) the IC50 was > 50 µM (inactive) and the IC50 [1] was greater than 50 µM.

Work on `O=C(NNC(=O)c1ccccn1)c1ccc(-c2ccccc2)cc1` yielded an IC50 of 6.3 µM, an IC50 [1] of 3.2 µM and an IC50 [2] of 3.2 µM.

In the case of `Cc1ccccc1NS(=O)(=O)c1ccc2[nH]cc(C(=O)NC3CCCC3)c(=O)c2c1`, the IC50 is reported as > 50 µM (inactive), the IC50 [1] is reported as 32 µM and the IC50 [2] is reported as 40 µM.

`O=C(Nc1ccc(-c2nc3ccccc3c(=O)[nH]2)cc1)c1cccs1` was tested, and the IC50 was > 50 µM (inactive), the IC50 [1] was greater than 50 µM and the IC50 [2] was greater than 50 µM.

In the case of `O=C(Nc1nc2ccccc2[nH]1)c1c(O)c2cccc3c2n(c1=O)CC3`, the IC50 is reported as 2 µM, the IC50 [1] is reported as greater than 50 µM and the IC50 [2] is reported as 1 µM.

`N#Cc1ccc(C(=O)Nc2cccc(-c3cccc(CN4CCC(O)CC4)c3)c2)cc1` was tested, and the IC50 was 16 µM, the IC50 [1] was 16 µM and the IC50 [2] was 7.9 µM.
